{"source": "patent US7056938B1", "about": "“Method for scavenging radicals with urocanic acid, derivatives and analogues” (Academisch Ziekenhuis Bij De Univ., priority 1999, dated 2006)", "key": {"[1]": {"experiment": "Fenton oxidation of UCA (Fe2+ / hydrogen peroxide, HPLC)", "type": "physicochemical", "settings": "for TRANS-UROCANIC ACID LEFT OVER: trans-UCA 40 μM, hydrogen peroxide 500 μM; for YIELD of FENTON OXIDATION PRODUCTS: sum of 8 major peaks", "protocol": "Trans-UCA and cis-UCA were separated from each other and from several UCA oxidation products on a 4.6×250 mm Alltima C18 and Luna C18 reversed-phase column (Alitech, Deerfield, Ill. and Phenomenex, Torrence, Calif., resp.) with a flow of 0.8 mL/min, delivered by P-3500 HPLC-pumps (Pharmacia, Uppsala, Sweden). Samples of 20 to 200 μL were injected by a Promis II autosampler (Spark Holland, Emmen, The Netherlands) and chromatographic data were recorded on an SP 4270 integrator (Spectra Physics, San Jose, Calif.). Peak area data from samples were only processed under identical HPLC circumstances. A UV-detector (Applied Biosystems, model 759A, Foster City, Calif.) was set for 226 nm detection. Isocratic elution was performed with 10 mM ammonium formate buffer, containing 0.2–0.8 mM tetrabutylammonium(TBA)formate and 1% acetonitrile (pH 7.2). Collected fractions were acidified with formic acid up to a final concentration of 100 mM and passed through C18 could phase extraction columns (J T Baker, Deventer, The Netherlands) in order to remove TBA.\n[…] In addition, two hydroxyl-radical-generating systems with copper ions (Cu^2+) were used, consisting of 50 μM Cu^2+ with either 500 μM hydrogen peroxide or 5 mM ascorbic acid.\nIn the next series of experiments we studied the Fenton oxidation of UCA, representing another natural oxidation process. Trans-UCA and cis-UCA isomers were Fenton oxidized by ferorus ions (Fe^2+) and hydrogen peroxide at physiological concentrations. The initial hydrogen peroxide concentration was 500 μM and the ferrous ion concentration was varied from 0 to 500 μM. In all Fenton oxidation reactions the degree of UCA-isomer breakdown was calculated from their reduced peak areas. The oxidation reaction must have been completed within 2 minutes for all reaction conditions, because no further breakdown was observed after prolonged incubation.\nWhen the Fenton reaction was performed in water instead of phosphate buffer, the oxidative breakdown of trans-UCA was enhanced irrespective of the UCA concentration. The turbidity seen in reactions performed in phoshate buffer (10 mM) with high Fe^2+ concentration (>100 μM) was probably due to the formation of insoluble, iron phosphate, thereby reducing the free availability of Fe^2+. Table 3 summarizes the difference between water and phosphate medium for trans-UCA at an initial concentration of 40 μM with respect to its breakdown and the formation of Fenton-oxidation products. Similarly to the photo-oxidation experiments, the peak areas of the 8 major oxidation products were summed. […] A close resemblance was observed between the chromatographic patterns of UCA Fenton oxidation products (not shown) and those of UCA photo-oxidation products. Three of them has been identified (vide infra).\nIn another series of experiments we studied the Fenton oxidation of UCA, representing another natural oxidation process. The initial hydrogen peroxide concentration was 500 μM in all experiments and the ferrous ion concentration was varied from 0 to 400 μM. Four sets of conditions were compared: […] in phosphate buffer pH 7.2, 2. Fe^2+ in phosphate buffer plus EDTA, 3. Fe^2− without buffer with a initial pH of 5.5–5.3 and 4. Cu^2+ in phosphate buffer plus ascorbate. The degree of breakdown was similar for both UCA isomers."}, "[2]": {"experiment": "deoxyribose (dR) degradation test, hydroxyl radical scavenging", "type": "biochemical", "protocol": "Trans-UCA, cis-UCA, related imidazoles and non-imidazole compounds were tested with regard to their ability to compete with deoxyribose to scavenge hydroxyl radicals. On exposure to hydroxyl radicals deoxyribose is degraded into malondialdehyde, which reacts with thiobarbituric acid to form a pink chromogen. Powerful hydroxyl-radical scavengers will compete with deoxyribose, resulting in a reduced amount of malondialdehyde. Ten compounds, UCA, UCA analogues, alanine and uric acid (FIG. 1) were tested on their ability to scavenge hydroxyl radicals.\nMethod: the deoxyribose (dR) degradation test. The test was analogous to an earlier described method. Briefly, the reactions were performed in 5 mL screw cap glass tubes in a final volume of 1.0 mL sodium phosphate buffer (50 mM; pH 7.2), containing 3.0 mM 2 deoxy-D-ribose, 0.5 mM hydrogen peroxide and one of the test compounds at graded concentrations. The reaction was started by the addition of premixed disodium EDTA and ferrous iron solution (final concentrations 0.5 mM and 0.2 mM, respectively). The mixture was left for 15 minutes at room temperature. After addition of 1.0 mL 1% thiobarbituric acid in 50 mM NaOH and 0.75 mL 2.8% trichloroacetic acid, the tubes were heated for 20 minutes in a boiling water bath. The pink color was read at 532 nm and reciprocal absorption values were plotted against the concentration of the test compound after subtraction of appropriate blanks. A series of six duplicate determinations from test compound dilutions was employed to construct a graph slope for the calculation of a rate constant value. The mean, SD, number of rate constants and the percentage of inhibition of deoxyribose degradation, calculated for each test compound, are listed. Results. All second-order rate constants for reaction with hydroxyl radicals and, in addition, the percentage inhibition of deoxyribose degradation with equimolar concentrations (3 mM) of scavenger are summarized in Table 1. Trans-UCA and cis-UCA are substantially more powerful in scavenging hydroxyl radicals (8.0 and 7.1×10^3 M^−1,s^−1, respectively), than the other 4-(5-)-substituted imidazoles, including L-histidine (2.6×10^2 M^−1,s^−1). L-histidine, the precursor of UCA, was included as a known moderate scavenger with structural similarities to UCA. L-alanine was used as a known poor scavenger. Trans-FAA was tested as a non-imidazole acrylic acid derivative, having a furan ring instead.\nFIG. 2. A determination of the second order rate constants of trans-UCA and cis-UCA with hydroxyl radicals. The rate constant was derived from the slope of the line (k=slope×kdR×[dR]×A0), where A0 is the absorbance, measured in the absence of hydroxyl radical scavenger. KdR was taken as 3.1×10^9 M^−1,s^−1, derived from pulse radiolysis studies, and [dR]=3 mM. […] The other scavengers were studied similarly."}}, "data": [{"smiles": "O=C(O)/C=C/c1cnc[nH]1", "note": "[trans-Urocanic acid, Trans-urocanic acid]", "values": [{"measurement": "TRANS-UROCANIC ACID LEFT OVER", "setting": "[1]; Fe2+ 0 μM, in phosphate buffer 10 mM pH 7.2", "result": "100 (±1) %"}, {"measurement": "YIELD of FENTON OXIDATION PRODUCTS", "setting": "[1]; Fe2+ 0 μM, in phosphate buffer", "result": "<10", "unit": "A.U."}, {"measurement": "YIELD of FENTON OXIDATION PRODUCTS", "setting": "[1]; Fe2+ 0 μM, in water", "result": "<10", "unit": "A.U."}, {"measurement": "TRANS-UROCANIC ACID LEFT OVER", "setting": "[1]; Fe2+ 0 μM, in water", "result": "100 (±3) %"}, {"measurement": "TRANS-UROCANIC ACID LEFT OVER", "setting": "[1]; Fe2+ 50 μM, in phosphate buffer 10 mM pH 7.2", "result": "97 (±1) %"}, {"measurement": "YIELD of FENTON OXIDATION PRODUCTS", "setting": "[1]; Fe2+ 50 μM, in phosphate buffer", "result": "<10", "unit": "A.U."}, {"measurement": "YIELD of FENTON OXIDATION PRODUCTS", "setting": "[1]; Fe2+ 50 μM, in water", "result": "194 (±34) A.U."}, {"measurement": "TRANS-UROCANIC ACID LEFT OVER", "setting": "[1]; Fe2+ 50 μM, in water", "result": "77 (±11) %"}, {"measurement": "TRANS-UROCANIC ACID LEFT OVER", "setting": "[1]; Fe2+ 100 μM, in phosphate buffer 10 mM pH 7.2", "result": "94 (±5) %"}, {"measurement": "YIELD of FENTON OXIDATION PRODUCTS", "setting": "[1]; Fe2+ 100 μM, in phosphate buffer", "result": "27 (±5) A.U."}, {"measurement": "YIELD of FENTON OXIDATION PRODUCTS", "setting": "[1]; Fe2+ 100 μM, in water", "result": "272 (±6) A.U."}, {"measurement": "TRANS-UROCANIC ACID LEFT OVER", "setting": "[1]; Fe2+ 100 μM, in water", "result": "48 (±7) %"}, {"measurement": "TRANS-UROCANIC ACID LEFT OVER", "setting": "[1]; Fe2+ 250 μM, in phosphate buffer 10 mM pH 7.2", "result": "83 (±3) %"}, {"measurement": "YIELD of FENTON OXIDATION PRODUCTS", "setting": "[1]; Fe2+ 250 μM, in phosphate buffer", "result": "36 (±3) A.U."}, {"measurement": "YIELD of FENTON OXIDATION PRODUCTS", "setting": "[1]; Fe2+ 250 μM, in water", "result": "423 (±76) A.U."}, {"measurement": "TRANS-UROCANIC ACID LEFT OVER", "setting": "[1]; Fe2+ 250 μM, in water", "result": "19 (±8) %"}, {"measurement": "TRANS-UROCANIC ACID LEFT OVER", "setting": "[1]; Fe2+ 500 μM, in phosphate buffer 10 mM pH 7.2", "result": "78 (±12) %"}, {"measurement": "YIELD of FENTON OXIDATION PRODUCTS", "setting": "[1]; Fe2+ 500 μM, in phosphate buffer", "result": "49 (±9) A.U."}, {"measurement": "YIELD of FENTON OXIDATION PRODUCTS", "setting": "[1]; Fe2+ 500 μM, in water", "result": "511 (±35) A.U."}, {"measurement": "TRANS-UROCANIC ACID LEFT OVER", "setting": "[1]; Fe2+ 500 μM, in water", "result": "<4", "unit": "%"}, {"measurement": "broken down by the unbuffered Fenton oxidation system", "setting": "[1]; initial UCA concentration 250 μM, unbuffered", "result": 78, "unit": "%"}, {"measurement": "INHIBITION of DEOXYRIBOSE DEGRADATION", "setting": "[2]; [SCAVENGER] = [DEOXYRIBOSE] = 3 Mm", "result": 67, "unit": "%"}, {"measurement": "SECOND ORDER RATE CONSTANT for reaction with hydroxyl radicals", "setting": "[2]; mean of n slopes, sodium phosphate buffer pH 7.2", "result": "8e+09", "unit": "M⁻¹ s⁻¹"}, {"measurement": "second order rate constant in the particular set of FIG. 2", "setting": "[2]; single set of FIG. 2, kdR 3.1×10^9, [dR]=3 mM", "result": "8.49 ×10^9 M^−1,s^−1"}]}]}
